According to a melting point compilation (Tetko et al.):

Structure (SMILES) | melting point
CC(NC(=O)CCl)c1cccs1 (stereo not drawn) | 92 to 94 °C
CC(=O)N1CCN(CC(N)=NO)CC1 | 199 to 201 °C
O=C(O)CCc1cn(Cc2ccc(Cl)cc2)c2ccccc12 | 139 to 141 °C
O=C(O)c1cc2ccccc2c(=O)[nH]1 | 318 to 320 °C
COC(=O)C(C)Oc1ccc(F)cc1Br (stereo not drawn) | 38 to 40 °C
NCc1ccc(S(=O)(=O)N2CCOCC2)cc1 | 121 to 123 °C
Cc1nn(-c2ccccc2)c(C)c1CC(=O)O | 110 to 112 °C
Cc1ccc2[nH]cc(C(=O)C(F)(F)F)c2c1 | 243 to 245 °C
Nc1ccc(Sc2nncs2)c(Cl)c1 | 112 to 114 °C
Clc1cc(Cl)c2c(n1)NCC2 | 149 to 151 °C
CC(C#N)NC(=O)OC(C)(C)C (stereo not drawn) | 94 to 96 °C
Cc1nnc(-c2ccccc2N)o1 | 145 to 147 °C
O=C(O)c1ccccc1Oc1cccnc1 | 134 to 136 °C
Cc1ccc(C(=O)c2ccccc2Cl)cc1 | 90 to 92 °C
COC(=O)C(O)c1cccc(Cl)c1 (stereo not drawn) | 80 to 82 °C
O=C(CCl)NC(=O)OCc1ccccc1 | 113 to 115 °C
O=C(O)c1nn(-c2ccccc2)cc1O | 154 to 156 °C
O=C(O)CCCc1nc(-c2ccccc2)no1 | 105 to 107 °C
CC(=O)c1ccc(-c2ccc(C(=O)O)o2)cc1 | 219 to 221 °C
Cc1cc(C(=O)CCl)c(F)cc1F | 80 to 82 °C
O=[N+]([O-])c1ccc(CO)c(Br)c1 | 81 to 83 °C
CCOC(=O)Cc1nn[nH]n1 | 120 to 127 °C
Nc1ccnn1Cc1ccccc1 | 82 to 84 °C
Cc1ccc(C(C)C(O)C(=O)O)cc1 (stereo not drawn) | 111 to 113 °C

Structure (SMILES) | melting point
O=C(Nc1ccc(C(=O)O)c(O)c1)c1ccc(Cl)c(Cl)c1 | 272 to 274 °C
COc1ccc(S(=O)(=O)Cl)c(OC)c1C(=O)O | 129 to 131 °C
CC(C)c1cc(C(C)C)c([N+](=O)[O-])cc1[N+](=O)[O-] | 77 to 79 °C
CCOC(=O)c1c(CCCO)cnc2c(C#N)cnn12 | 94 to 96 °C
Cc1cc(Cl)nc(-c2cccnc2)n1 | 70 to 72 °C
Fc1ccccc1-c1nnc(S)[nH]1 | 154 to 156 °C
CCOc1ccc([N+](=O)[O-])cc1C=O | 66 to 68 °C
O=C(O)C=Cc1cc(Cl)ccc1OCc1ccccc1Cl | 195 to 197 °C
Cc1c(C(=O)O)cnn1C1CCOCC1 | 207 to 209 °C
Cc1cc([N+](=O)[O-])c(Cl)cc1F | 43 to 45 °C
Clc1cncc(OCc2ccccc2)n1 | 47 to 49 °C
CS(=O)(=O)NCC(=O)c1ccccc1 | 113 to 115 °C
COC(=O)Cc1csc(N)n1 | 123 to 125 °C
Cc1c(N)cccc1N1CCCC1=O | 170 to 172 °C
O=C(O)c1cc(C2CC2)nc2onc(-c3ccccc3)c12 | 213 to 215 °C
CC(CC(=O)O)c1ccc(Br)cc1 (stereo not drawn) | 101 to 103 °C
Nc1cc(-c2ccc(F)cc2)no1 | 100 to 102 °C
COC(=O)c1cc(C(=O)O)ccn1 | 233 to 235 °C
COc1cccc(NC2=NC(C)(C)CS2)c1 | 105 to 107 °C
CN(C)C=C1C(=O)CCC1=O | 89 to 91 °C
CCCCc1nc(-c2cccc(O)c2)no1 | 51 to 53 °C
CC(C)(C)c1ccc(C=CC(=O)O)cc1 | 206 to 208 °C
O=C(O)c1ccc(F)cc1I | 144 to 146 °C
O=C(O)CCCCc1ccc(Cl)cc1 | 64 to 66 °C

Structure (SMILES) | melting point
O=C(Nc1ccc(Cl)cn1)Nc1ccccc1C(=O)O | 245 to 247 °C
Cc1cc(Br)cc2c(=O)cc[nH]c12 | 249 to 251 °C
CC(C)(C)OC(=O)NC1CN(c2ccccc2)C1=O (stereo not drawn) | 167 to 169 °C
Nc1ccnc(Oc2ccccc2)c1 | 52 to 54 °C
COC(=O)c1ccc(OCC2CO2)cc1 (stereo not drawn) | 59 to 61 °C
Cc1nc2c(cnn2-c2ccc(F)cc2)c(=O)[nH]1 | 329 to 331 °C
c1ccc(CN(Cc2ccccc2)Cn2nnc3ccccc32)cc1 | 118 to 120 °C
COc1ccc(CCl)cc1Br | 45 to 51 °C
O=C(O)CSc1nnc(-c2ccc(Cl)cc2Cl)[nH]1 | 161 to 163 °C
Nc1ncc(Cc2cccc(Cl)c2Cl)s1 | 140 to 142 °C
Cn1c(=O)oc2cc(C(=O)CCl)ccc21 | 159 to 161 °C
Cc1nn(-c2ccccc2)c(C)c1N | 61 to 63 °C
CC1C=CC2C(=O)N(Cc3ccccc3)C(=O)C2C1C(=O)O (stereo not drawn) | 204 to 206 °C
Cc1ccc(C)n1-c1sccc1C(=O)O | 168 to 170 °C
O=C(O)CCCNc1ncccn1 | 127 to 129 °C
CCC(=O)N1CSCC1C(=O)O (stereo not drawn) | 74 to 76 °C
COc1ccc(S(=O)(=O)NC(CCC(N)=O)C(=O)O)cc1 (stereo not drawn) | 171 to 173 °C
Cc1cc(N)ccc1S(N)(=O)=O | 169 to 171 °C
CCCc1cc(O)c2ccccc2n1 | 168 to 170 °C
O=C(O)c1sccc1C1CC1 | 169 to 171 °C
O=C(Nc1nccs1)C(Cl)(Cl)Cl | 203 to 205 °C
COc1ccc([N+](=O)[O-])cc1S(=O)(=O)Cl | 85 to 87 °C
CS(=O)(=O)Cc1ccc(Cl)c(N)c1 | 137 to 139 °C
Cc1ccc(Cn2nc(C)c(C=O)c2C)cc1 | 65 to 67 °C

The next lines start with the values.

melting point | Structure (SMILES)
123 to 125 °C | O=C1CC(N2CCCC2)C(=O)N1 (stereo not drawn)
121 to 123 °C | COc1ccccc1C(C)(C)C(=O)O
99 to 101 °C | COc1nnc(Cl)c2ccccc12
116 to 118 °C | O=C(O)C1CC=CCC1C(=O)N1CCCC1 (stereo not drawn)
107 to 109 °C | COC(=O)c1ccc(N)cc1Cl
203 to 205 °C | CC(C)C(=O)Nc1ccc(CNC(=O)n2ccnc2)cc1
239 to 241 °C | Cn1cc(C#N)c(=O)[nH]c1=O
152 to 154 °C | CCOC(=O)C1=C(CC)Nc2ccccc2N=C1N
44 to 46 °C | CCOC(=O)c1cc(C)cc(Br)c1N
261 to 263 °C | O=C(O)CNC(=O)c1ccc(C(=O)NCC(=O)O)cc1
93 to 95 °C | COc1ccccc1CN1C(=O)C=CC1=O
109 to 111 °C | Cc1nnnn1-c1cc(N)ccc1F
109 to 111 °C | O=c1oc2ccc([N+](=O)[O-])cc2n1CCCBr
102 to 104 °C | O=C(O)CC1(CC(=O)c2ccc(Cl)s2)CCCCC1
116 to 118 °C | Cc1cc(Cl)c([N+](=O)[O-])cc1S(=O)(=O)Cl
129 to 131 °C | O=C(O)c1ccccc1NCCC1=CCCCC1
75 to 77 °C | CCOc1cc(C#N)ccc1O
122 to 124 °C | Nc1ccc(F)c(N2CCCC2=O)c1
120 to 122 °C | COc1ccc2c(c1)CC(C(=O)O)CO2 (stereo not drawn)
119 to 121 °C | COc1ccc(C2C(CO)CCC(=O)N2C)cc1 (stereo not drawn)
120 to 122 °C | O=C(O)CCCNS(=O)(=O)c1ccc2c(c1)OCCO2
173 to 175 °C | C=CCOc1ccc(C(=O)O)cc1OC
100 to 102 °C | CNS(=O)(=O)c1ccc(Cl)c(C(F)(F)F)c1
116 to 118 °C | CC(C)C(Br)C(=O)NC1CCCCC1 (stereo not drawn)

melting point | Structure (SMILES)
144 to 146 °C | c1c[nH]c(C2CCCCN2)n1 (stereo not drawn)
229 to 231 °C | Cc1sc(-c2ccco2)nc1C(=O)O
199 to 201 °C | CC(C)Oc1cccnc1C(=O)O
359 to 361 °C | O=S(=O)(O)c1ccc2[nH]cnc2c1
119 to 121 °C | Cc1ccccc1-c1nc(C(=O)O)cs1
294 to 296 °C | Cc1ccc(C(=O)O)cc1NC(=O)Cc1ccncc1
139 to 141 °C | CC1=NOC(=O)C1CCC(=O)O (stereo not drawn)
170 to 180 °C | O=C(O)CCNS(=O)(=O)c1ccc2ccccc2c1
212 to 214 °C | O=C(O)c1c[nH]cc1-c1ccccc1
248 to 250 °C | Nc1nnc(C(=O)NCc2ccccc2)[nH]1
95 to 97 °C | CC(C)(C)OC(=O)N1CCC(=O)C(Br)C1 (stereo not drawn)
109 to 111 °C | O=C(O)c1ccnc(OC2CCOC2)c1 (stereo not drawn)
106 to 108 °C | COc1c(C#N)cnc2ccccc12
72 to 74 °C | Cc1ccc(-c2csc(CN)n2)cc1
132 to 134 °C | N#CCC(=O)NC1CCCCC1
115 to 117 °C | O=S1(=O)CCCN1c1ccccc1Br
167 to 169 °C | CC(C)(C(=O)O)C(O)c1ccc(OCc2ccccc2)cc1 (stereo not drawn)
129 to 131 °C | CC(=O)NCc1ccc(C(C)=O)s1
129 to 131 °C | Nc1nccnc1Br
138 to 140 °C | COC(=O)c1cc(Br)cc(S(N)(=O)=O)c1
169 to 171 °C | O=C1CNc2ccc(Br)cc2N1
50 to 52 °C | CCNC(c1cccnc1)c1ccc2c(c1)CCO2 (stereo not drawn)
88 to 90 °C | Nc1cccc(CS(=O)C2CCCCC2)c1 (stereo not drawn)
110 to 112 °C | Nc1nc(CN2CCN(Cc3ccccc3)CC2)cs1

melting point | Structure (SMILES)
125 to 127 °C | NC(=O)Nc1cccc(N)c1
138 to 140 °C | Cn1nc(C(C)(C)C)cc1NC(=O)CCl
142 to 144 °C | Cc1nn(-c2ccc(C(F)(F)F)cn2)c(C)c1CC(=O)O
218 to 220 °C | Cc1ccc(-n2cc(C(=O)O)c(C(C)(C)C)n2)cc1
75 to 77 °C | COC(=O)c1cn(CCCC#N)nn1
202 to 204 °C | O=C(O)c1cc(-c2ccccc2)cc(Cl)c1O
146 to 148 °C | Cc1ccc2c(c1)NC(=O)C(C)O2 (stereo not drawn)
194 to 196 °C | Nc1cccc(S(=O)(=O)Nc2cn[nH]c2)c1
125 to 127 °C | Cc1cc(Oc2cnccn2)ccc1N
162 to 164 °C | O=C(O)C(Cc1ccccc1)n1cnnn1 (stereo not drawn)
190 to 192 °C | CC1(c2ccc3ccccc3c2)NC(=O)NC1=O (stereo not drawn)
201 to 203 °C | CC1=NN(c2cccc(Br)c2)C(=O)C1CC(=O)O (stereo not drawn)
97 to 99 °C | Nc1ncc(Cc2ccc(F)c(F)c2)s1
210 to 212 °C | COc1ccc(N)c(OC)n1
128 to 130 °C | CN(C)S(=O)(=O)c1ccc(C#N)cc1
156 to 158 °C | Cc1sc(C(=O)O)cc1-c1ccc(F)cc1
42 to 44 °C | CC(C)C(N)=S
245 to 247 °C | O=C(O)c1cnc(S)n1-c1ccccc1
80 to 82 °C | COc1ccc(S(=O)(=O)Cl)cc1Cl
174 to 176 °C | COC1=CC(=C(N)N=O)C=CN1
115 to 117 °C | CC(Cl)C(=O)Nc1cccc([N+](=O)[O-])c1 (stereo not drawn)
182 to 184 °C | CC(=O)c1cc(F)ccc1-n1ccnc1
113 to 115 °C | O=C(Cn1ccnc1)c1cccc(F)c1
